Inconclusive results and toxic doses are left out. How the source made its calls: active means survival T/C of 150% or more; inactive means T/C below 125% in these data.
Tested on: CD2F1 mice, L1210 leukemia ip, survival T/C
Test: NCI In Vivo Anticancer Drug Screen. Data for tumor model L1210 Leukemia (intraperitoneal) in CD2F1 (CDF1) mice
Conditions: higher = longer survival
In short: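 Activity against a transplanted murine tumor was judged by comparing the compound group with a vehicle group. The outcome in the treated animals was divided by that in the controls.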

[1] = endpoint: mean survival time, dose: 50.0 mg/kg/injection, schedule: Q01DX009 (ip), vehicle: saline with Tween-80
[2] = endpoint: mean survival time, dose: 100.0 mg/kg/injection, schedule: Q01DX001 (ip), vehicle: saline with Tween-80
[3] = endpoint: mean survival time, dose: 100.0 mg/kg/injection, schedule: Q01DX009 (ip), vehicle: saline with Tween-80
[4] = endpoint: mean survival time, dose: 200.0 mg/kg/injection, schedule: Q01DX001 (ip), vehicle: saline with Tween-80
[5] = endpoint: mean survival time, dose: 200.0 mg/kg/injection, schedule: Q01DX009 (ip), vehicle: saline with Tween-80
[6] = endpoint: mean survival time, dose: 100.0 mg/kg/injection, schedule: Q04DX003 (ip), vehicle: saline with Tween-80
[7] = endpoint: mean survival time, dose: 200.0 mg/kg/injection, schedule: Q04DX003 (ip), vehicle: saline with Tween-80
[8] = endpoint: mean survival time, dose: 400.0 mg/kg/injection, schedule: Q01DX009 (ip), vehicle: saline with Tween-80
[9] = endpoint: mean survival time, dose: 400.0 mg/kg/injection, schedule: Q04DX003 (ip), vehicle: saline with Tween-80
[10] = endpoint: mean survival time, dose: 400.0 mg/kg/injection, schedule: Q01DX001 (ip), vehicle: saline with Tween-80
[11] = endpoint: mean survival time, dose: 25.0 mg/kg/injection, schedule: Q01DX009 (ip), vehicle: Klucel (hydroxypropylcellulose) (HPC)
[12] = endpoint: mean survival time, dose: 50.0 mg/kg/injection, schedule: Q01DX009 (ip), vehicle: Klucel (hydroxypropylcellulose) (HPC)
[13] = endpoint: mean survival time, dose: 100.0 mg/kg/injection, schedule: Q01DX009 (ip), vehicle: Klucel (hydroxypropylcellulose) (HPC)

Measured: T/C

CCc1ccc(C)[nH]c1=S
inactive: [1] 105 % of control | [2] 102 % of control | [3] 98 % of control | [4] 102 % of control | [5] 98 % of control

O=S(=O)(O)CCCl
inactive: [1] 96 % of control | [3] 96 % of control | [5] 96 % of control

CCNNC(=O)[C@@H]1[C@H](c2cc(OC)c(OC)c(OC)c2)c2cc3c(cc2[C@H](O)[C@H]1CO)OCO3
inactive: endpoint: mean survival time, dose: 7.8 mg/kg/injection, schedule: Q01DX Z (ip), vehicle: saline 100 % of control | endpoint: mean survival time, dose: 15.6 mg/kg/injection, schedule: Q01DX Z (ip), vehicle: saline 96 % of control | endpoint: mean survival time, dose: 31.3 mg/kg/injection, schedule: Q01DX Z (ip), vehicle: saline 103 % of control | endpoint: mean survival time, dose: 62.5 mg/kg/injection, schedule: Q01DX Z (ip), vehicle: saline 111 % of control

O=[N+]([O-])c1cccc(C2=NNC(c3cccc([N+](=O)[O-])c3)=NN2)c1
inactive: endpoint: median survival time, dose: 50.0 mg/kg/injection, schedule: Q01DX001 (ip), vehicle: saline with Tween-80 88 % of control | endpoint: median survival time, dose: 100.0 mg/kg/injection, schedule: Q01DX001 (ip), vehicle: saline with Tween-80 92 % of control | endpoint: median survival time, dose: 200.0 mg/kg/injection, schedule: Q01DX001 (ip), vehicle: saline with Tween-80 94 % of control | endpoint: median survival time, dose: 400.0 mg/kg/injection, schedule: Q01DX001 (ip), vehicle: saline with Tween-80 95 % of control | endpoint: median survival time, dose: 800.0 mg/kg/injection, schedule: Q01DX001 (ip), vehicle: saline with Tween-80 98 % of control

OC(c1ccccc1)(c1ccccc1)c1ccccc1C(O)(c1ccccc1)c1ccccc1
inactive: endpoint: mean survival time, dose: 100.0 mg/kg/injection, schedule: Q01DX001 (ip), vehicle: Klucel (hydroxypropylcellulose) (HPC) 90 % of control | endpoint: mean survival time, dose: 200.0 mg/kg/injection, schedule: Q01DX001 (ip), vehicle: Klucel (hydroxypropylcellulose) (HPC) 90 % of control

Nc1nc(N)c(N=Nc2ccccc2S(=O)(=O)O)c(N)n1
inactive: [3] 94 % of control | [6] 95 % of control | [5] 108 % of control | [7] 100 % of control | [8] 100 % of control | [9] 93 % of control

N#CCCN=C1C=CC(=C(c2ccc(NCCC#N)cc2)c2ccc(Cl)cc2Cl)C=C1
inactive: endpoint: mean survival time, dose: 100.0 mg/kg/injection, schedule: Q04DX002 (ip), vehicle: saline with Tween-80 117 % of control

N#CCCCCCN=[N+]=[N-]
inactive: endpoint: mean survival time, dose: 75.0 mg/kg/injection, schedule: Q01DX001 (ip), vehicle: saline 98 % of control | endpoint: mean survival time, dose: 150.0 mg/kg/injection, schedule: Q01DX001 (ip), vehicle: saline 101 % of control

Nc1nc(=O)n(CCCOc2cccc([N+](=O)[O-])c2)cc1-c1ccccc1
inactive: [2] 96 % of control | [4] 87 % of control | [10] 87 % of control

CSCSCC(N)CO (stereo not drawn)
inactive: [11] 102 % of control | [12] 94 % of control | [13] 93 % of control | endpoint: mean survival time, dose: 200.0 mg/kg/injection, schedule: Q01DX009 (ip), vehicle: Klucel (hydroxypropylcellulose) (HPC) 96 % of control | endpoint: mean survival time, dose: 400.0 mg/kg/injection, schedule: Q01DX009 (ip), vehicle: Klucel (hydroxypropylcellulose) (HPC) 96 % of control

CC(=O)C(CCCCCCCCCCC(C(C)=O)C(C)=O)C(C)=O
inactive: [2] 93 % of control | [4] 101 % of control | [10] 94 % of control

CC(C)N(CCCC#N)C(C)C
inactive: endpoint: mean survival time, dose: 50.0 mg/kg/injection, schedule: Q01DX009 (ip), vehicle: saline 96 % of control | endpoint: mean survival time, dose: 100.0 mg/kg/injection, schedule: Q01DX009 (ip), vehicle: saline 95 % of control | [6] 97 % of control | [7] 89 % of control

CC(=O)N(C(C)=O)c1ccccc1
inactive: [6] 97 % of control | [7] 97 % of control | [9] 103 % of control

CC(=O)NC(C)C(=O)NC1C(C)OC(=O)C2=C(O)CC(O)C(O)C21 (stereo not drawn)
inactive: [6] 92 % of control | [7] 100 % of control | [9] 97 % of control

O=S(=O)(O)c1ccc2c(N=Nc3ccccc3[As](=O)(O)O)c(O)c(S(=O)(=O)O)cc2c1
inactive: [3] 96 % of control | [6] 104 % of control | [5] 100 % of control | [7] 94 % of control | [9] 98 % of control

O=C(/C(=C/c1ccccc1)CN1CCOCC1)c1ccccc1
inactive: [11] 101 % of control | [12] 105 % of control | [13] 91 % of control

C=C(C)C12OC3(c4ccccc4)OC1C1C4OC4(CO)C(O)C4(O)C(=O)C(C)=CC4C1(O3)C(C)C2OC(=O)c1ccccc1 (stereo not drawn)
inactive: endpoint: mean survival time, dose: 0.1 mg/kg/injection, schedule: Q01DX009 (ip), vehicle: saline 96 % of control | endpoint: mean survival time, dose: 0.2 mg/kg/injection, schedule: Q01DX009 (ip), vehicle: saline 98 % of control | endpoint: mean survival time, dose: 0.4 mg/kg/injection, schedule: Q01DX009 (ip), vehicle: saline 98 % of control | endpoint: mean survival time, dose: 0.8 mg/kg/injection, schedule: Q01DX009 (ip), vehicle: saline 100 % of control

COc1ccc(OC)c(NC(=O)Nc2cc(Cl)c(OC)cc2OC)c1
inactive: [3] 87 % of control | endpoint: mean survival time, dose: 178.0 mg/kg/injection, schedule: Q01DX009 (ip), vehicle: saline with Tween-80 97 % of control | [5] 103 % of control | endpoint: mean survival time, dose: 266.0 mg/kg/injection, schedule: Q01DX009 (ip), vehicle: saline with Tween-80 95 % of control | endpoint: mean survival time, dose: 600.0 mg/kg/injection, schedule: Q01DX009 (ip), vehicle: saline with Tween-80 95 % of control

C/C=C(/C(=O)OC)c1ccc([N+](=O)[O-])cc1
inactive: [3] 94 % of control | [6] 92 % of control | [5] 95 % of control | [7] 94 % of control | [8] 94 % of control | [9] 92 % of control

CSC(=S)N(C)/N=C/c1cccc(C)n1
inactive: [6] 96 % of control | [7] 102 % of control | [9] 102 % of control

Cc1oc(N)c(C(N)=O)c1C
inactive: endpoint: mean survival time, dose: 100.0 mg/kg/injection, schedule: Q01DX009 (ip), vehicle: saline sonified 103 % of control | [6] 100 % of control | endpoint: mean survival time, dose: 200.0 mg/kg/injection, schedule: Q01DX009 (ip), vehicle: saline sonified 93 % of control | [7] 100 % of control | endpoint: mean survival time, dose: 400.0 mg/kg/injection, schedule: Q01DX009 (ip), vehicle: saline sonified 92 % of control | [9] 94 % of control

CN(N)C=O
inactive: endpoint: mean survival time, dose: 25.0 mg/kg/injection, schedule: Q04DX003 (ip), vehicle: saline 98 % of control | endpoint: mean survival time, dose: 50.0 mg/kg/injection, schedule: Q04DX003 (ip), vehicle: saline 94 % of control | endpoint: mean survival time, dose: 100.0 mg/kg/injection, schedule: Q04DX003 (ip), vehicle: saline 102 % of control

O=S(c1ccccc1)C1OC12CCCCC2 (stereo not drawn)
inactive: [6] 97 % of control | [7] 98 % of control | [9] 97 % of control

CCOC(=O)Nc1cc(NCCc2ccccc2)c(N)c(N)n1
inactive: endpoint: mean survival time, dose: 50.0 mg/kg/injection, schedule: Q01DX001 (ip), vehicle: saline 101 % of control | endpoint: mean survival time, dose: 100.0 mg/kg/injection, schedule: Q01DX001 (ip), vehicle: saline 92 % of control

C[S+](C)(=O)/C=C(\[O-])Nc1ccc(Cl)c(Cl)c1
inactive: [6] 103 % of control | [7] 90 % of control | [9] 91 % of control

Nc1cc(C(=O)O)c(O)c(Cl)c1O
inactive: endpoint: mean survival time, dose: 12.5 mg/kg/injection, schedule: Q04DX002 (ip), vehicle: saline with Tween-80 93 % of control | endpoint: mean survival time, dose: 25.0 mg/kg/injection, schedule: Q04DX002 (ip), vehicle: saline with Tween-80 90 % of control | endpoint: mean survival time, dose: 50.0 mg/kg/injection, schedule: Q04DX002 (ip), vehicle: saline with Tween-80 97 % of control

Cc1ccc(S(=O)(=O)OCC(O)C(O)C(O)C(O)C=O)cc1 (stereo not drawn) (tested in a mixture with another compound)
inactive: [3] 103 % of control | [5] 95 % of control | [8] 112 % of control
